Measured values published in patent US8710241B2, “Crystalline form of zofenopril calcium” (Generics [UK]Limited, priority 2007, dated 2014).
Structures can show the parent of a compound that is named as a salt.

How the values were obtained:
[1] = Water vapour sorption isotherm (Surface Measurement Systems DVS-HT); format: physicochemical; settings: 25° C.; for Maximum water uptake: high/elevated relative humidity levels (greater than 90% rh), calcium salt
Protocol: Equilibrium water uptake levels of less than 0.5 wt % were observed up to a relative humidity level of 70% rh, which may be considered the uppermost limit of ambient humidity conditions.
Determination of the water vapour sorption isotherms of zofenopril calcium crystalline form D according to the invention and of the prior art form B were performed by Surface Measurement Systems DVS-HT. The resultant isotherms, as shown in FIGS. 4 and 5 respectively, were obtained under the following parameters: • Temperature=25° C. • Humidity profile: Desorption 1: 50-0% relative humidity (rh) in steps of 10% • Adsorption: 0-90% rh in steps of 10%, 95% rh • Desorption 2: 95% rh, 90-50% rh in steps of 10% • Equilibration time per rh stage: 240 min (0% rh), 180 min (all other rh levels)

[2] = Conditioning (equilibration) of dried samples, characterised by XRPD; format: physicochemical; settings: conditioned at 30° C. for 30 minutes under nitrogen after drying
Protocol: Approximately 100 mg of zofenopril calcium were dried at 50° C. for 120 minutes under a nitrogen flow atmosphere (flow rate: 500 ml/min). The sample was finally conditioned at 30° C. for 30 minutes under the nitrogen gas atmosphere.
The drying processes as detailed in the above examples yield the novel anhydrous form D of zofenopril calcium according to the invention. […] Thus, the compounds prepared by examples 1-5 were determined to be the same crystalline form and were distinct from the prior art forms A, B, and C. Further, the samples were then ‘conditioned’, i.e. they were allowed to equilibrate.

[3] = TGA, 25-105° C.
Protocol: The compounds obtained by the processes according to the invention as described above and in the following examples were also subjected to thermogravimetric analysis (TGA). […] The TGA analysis data was obtained using a Mettler-Toledo TGA851e apparatus under the following parameters: • Temperature profile: 25-300° C.@5° C./min • Nitrogen purge gas: 50 ml/min • Aluminium pan: 40 μl, pierced prior to scan

[4] = DSC and XRPD experiments on polymorphic transition; format: physicochemical; settings: up to temperatures of ca. 140° C.
Protocol: The X-ray powder diffraction data was obtained by methods known in the art using a Bruker D8 Advance Powder Diffractometer with scintillation detector under the following parameters: • Reflectance mode • Cu Kα radiation (1.5406 Å) • Scanning range: 2-30 °2θ • Step size: 0.02 °2θ • Time per step: 6s

Row | SMILES | Maximum water uptake [1] | Equilibrium water uptake ([1]; up to a relative humidity level of 70% rh) | Re-conversion to hydrate form C upon exposure to water vapour ([1]; water vapour sorption isotherm, 0-95% rh) | Conversion upon cooling to hydrated form C or another crystalline form [2] | Weight loss, equivalent to loss on drying (LOD) [3] | Polymorphic transition [4]
1 | C[C@H](CSC(=O)c1ccccc1)C(=O)N1C[C@@H](Sc2ccccc2)C[C@H]1C(=O)O [form B, (4S)-1-[(2S)-3-(benzoylthio)-2-methylpropionyl]-4-(phenylthio)-L-proline calcium salt, reference compound] | approximately 2.5 wt % | – | – | – | – | –
2 | C[C@H](CSC(=O)c1ccccc1)C(=O)N1C[C@@H](Sc2ccccc2)C[C@H]1C(=O)O [form D, (4S)-1-[(2S)-3-(benzoylthio)-2-methylpropionyl]-4-(phenylthio)-L-proline calcium salt] | ca. 1 wt % | less than 0.5 wt % | does not easily re-convert to hydrate form C | no conversion | less than 0.5 wt % | no polymorphic transition
